Experiment: Inhibition of LPS-stimulated nitric oxide formation in mouse microglial cells
Format: functional, cell-based

SMILES: CCCCOc1ccc(OCCCC)c(C(=O)/C=C/c2ccc(Cl)cc2)c1
- IC50: 700 nM

— ChEMBL document CHEMBL1140598, “A review of anti-infective and anti-inflammatory chalcones” (Eur J Med Chem, 2007)
